Test results published in US7229803B2, “Reaction of (di)amines in the presence of a lysine oxidase and of a reducing agent” (BASF Aktiengesellschaft, priority 2001, dated 2007).

These compounds were tested against T1, lysine oxidase from Pichia pastoris (Komagataella pastoris, UniProt Q96X16) (assay: Assays with various substrates: conversion in the presence of lysine oxidase (peroxidase/4-aminoantipyrine/phenol dye, absorption at 500 nm)). Details: substrate 18.75-1200 μmol/l in water, no reducing agent, L-lysine = 100.
T1 construct: Purification of the Lysine Oxidase from Pichia pastoris; endogenous in cells; host or cells: Pichia pastoris (enzyme purified from the yeast itself)
T1 sequence (Q96X16 19-787): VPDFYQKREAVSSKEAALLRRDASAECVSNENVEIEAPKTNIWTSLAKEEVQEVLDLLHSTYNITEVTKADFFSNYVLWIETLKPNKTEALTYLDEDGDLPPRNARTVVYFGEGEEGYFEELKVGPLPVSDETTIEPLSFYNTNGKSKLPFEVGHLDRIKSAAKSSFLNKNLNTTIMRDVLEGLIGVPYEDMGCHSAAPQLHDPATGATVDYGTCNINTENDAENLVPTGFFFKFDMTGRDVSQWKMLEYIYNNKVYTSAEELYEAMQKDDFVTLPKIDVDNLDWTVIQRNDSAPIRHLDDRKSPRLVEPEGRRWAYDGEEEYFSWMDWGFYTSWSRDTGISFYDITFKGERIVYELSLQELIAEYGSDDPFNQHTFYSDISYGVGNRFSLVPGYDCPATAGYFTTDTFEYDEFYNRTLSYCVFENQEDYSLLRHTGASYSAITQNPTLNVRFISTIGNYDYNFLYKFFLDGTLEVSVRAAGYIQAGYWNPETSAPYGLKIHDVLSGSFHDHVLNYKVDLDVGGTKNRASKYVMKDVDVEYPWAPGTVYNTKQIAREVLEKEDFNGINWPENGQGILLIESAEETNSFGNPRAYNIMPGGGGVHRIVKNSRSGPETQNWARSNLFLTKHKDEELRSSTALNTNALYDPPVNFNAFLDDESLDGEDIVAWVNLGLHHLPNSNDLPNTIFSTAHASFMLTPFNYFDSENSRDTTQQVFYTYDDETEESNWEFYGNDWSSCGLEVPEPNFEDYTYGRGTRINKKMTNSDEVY
Type: biochemical
Procedure: Measurement series in each case with a concentration of 1 200, 600, 300, 150, 75, 37.5 and 18.75 μmol of (di)amine per 1 l of water were carried out in a microtiter plate. 2 measurement series were carried out in each case; one with enzyme and one without enzyme as reference.
100 μl of each of the diluted solutions were taken. To this solution were added 25 μl of lysine oxidase and 40 μl of 35 millimolar phenol solution in 200 millimolar potassium phosphate/potassium diphosphate solution with a pH of 7.5, 40 μl of a 2 millimolar aqueous 4-aminoantipyrine solution and 40 μl of a solution of 0.35 mg of peroxidase (horseradish from Sigma) in 1 ml of water.
In the reference measurement series, the 25 μl of lysine oxidase were replaced by 25 μl of water. A violet dye was formed by the […] produced on conversion of the substrates and its absorption in the UV at 500 nm was measured (T. Uwajima, O. Terada, Methods in Enzymology 1982, 89, 243 ff.).
In the case of NCCCCN [1,4-Diaminobutane], the “Relative conversion rate compared with L-lysine in %” value (“Relative conversion rate … in %” below) is reported as 133%.
In the case of NCCCCCCN [1,6-Diaminohexane], the “Relative conversion rate … in %” value is reported as 180%.
In the case of NCCCCCCCCN [1,8-Diaminooctane], the “Relative conversion rate … in %” value is reported as 197%.
In the case of NCc1cccnc1 [3-Aminomethylpyridine], the “Relative conversion rate … in %” value is reported as 128%.
NCc1ccccc1 [Benzylamine] was tested, and the “Relative conversion rate … in %” value was 108%.
In the case of NCCCC[C@@H](N)C(=O)O [D-Lysine], the “Relative conversion rate … in %” value is reported as 100%.
With NCC(O)CCC(N)C(=O)O [D/L-5-Hydroxylysine] the “Relative conversion rate … in %” value was 60%.
NCCCC(N)C(=O)OC(F)F [D/L-Ornithine difluoromethyl ester] was tested, and the “Relative conversion rate … in %” value was 39%.
For NCCO [Ethanolamine], the “Relative conversion rate … in %” value was 50%.
With NCCN [Ethylenediamine] the “Relative conversion rate … in %” value was 84%.
For CCOC(=O)CN [Glycine ethyl ester], the “Relative conversion rate … in %” value was 93%.
NCCCC[C@H](N)C(=O)O [L-Lysine] was tested, and the “Relative conversion rate … in %” value was 100%.
In the case of NCCCNCCCCNCCCN [Spermine], the “Relative conversion rate … in %” value is reported as 185%.
In the case of CCCCN [n-Butylamine], the “Relative conversion rate … in %” value is reported as 63%.
CC(=O)N[C@@H](CCCCN)C(=O)O [α-N-Acetyllysine] was tested, and the “Relative conversion rate … in %” value was 120%.
